pIC50: −log10 of the molar value.

30 compounds from patent US11964953B2, “Substituted aminothiazoles as DGKzeta inhibitors for immune activation” (Bayer Aktiengesellschaft, priority 2020, dated 2024) can be followed below.

The target of the assay is human DGKζ (Homo sapiens (Human), UniProt Q13574). Description: Human DGKζ kinase activity inhibition assay (ADP-Glo). Type of assay: biochemical. As to conditions: in vitro human DGKζ kinase activity inhibition assay; read-out: IC50. On the procedure: Human DGKζ Kinase Activity Inhibition Assay. Human diacylglycerol kinase zeta (DGKζ) inhibitory activity of compounds of the present invention was quantified employing the human DGKζ kinase activity assay as described in the following paragraphs. In essence, the enzyme activity was measured by quantification of the adenosine-di-phosphate (ADP) generated as a co-product of the enzyme reaction via the “ADP-Glo™ Kinase Assay” kit from the company Promega. This detection system works as follows: In a first step the adenosine-tri-phosphate (ATP) not consumed in the kinase reaction is quantitatively converted to cyclic adenosine-mono-phosphate (cAMP) employing an adenylate cyclase (“ADP-Glo-reagent”), then the adenylate cyclase is stopped and the ADP generated in the kinase reaction is converted to ATP, which subsequently generates in a luciferase-based reaction a glow-luminescence signal (“Kinase Detection Reagent”). C-terminally FLAG-tagged, recombinant full-length human DGKζ (in house expressed in baculovirus infected insect cells, purified using anti-Flag pulldown and size exclusion chromatography) was used as enzyme. As an alternative, commercially available enzyme by Carnabio can be used. […] Subsequently, 22.55 volumes of a 510 mM solution of octyl-β-D-glucopyranoside (Sigma-Aldrich, Cat. #O8001-10G) in 50 mM MOPS buffer (pH 7.4) were added, and the mixture was sonicated in an ultrasonic bath for 20 s. […] Viewlux™ from Perkin-Elmer). The amount of emitted light was taken as a measure for the amount of ADP generated and thereby for the activity of the DGKζ.
Sequence of human DGKζ (Q13574 other isoform, or with tags, fused parts or gaps): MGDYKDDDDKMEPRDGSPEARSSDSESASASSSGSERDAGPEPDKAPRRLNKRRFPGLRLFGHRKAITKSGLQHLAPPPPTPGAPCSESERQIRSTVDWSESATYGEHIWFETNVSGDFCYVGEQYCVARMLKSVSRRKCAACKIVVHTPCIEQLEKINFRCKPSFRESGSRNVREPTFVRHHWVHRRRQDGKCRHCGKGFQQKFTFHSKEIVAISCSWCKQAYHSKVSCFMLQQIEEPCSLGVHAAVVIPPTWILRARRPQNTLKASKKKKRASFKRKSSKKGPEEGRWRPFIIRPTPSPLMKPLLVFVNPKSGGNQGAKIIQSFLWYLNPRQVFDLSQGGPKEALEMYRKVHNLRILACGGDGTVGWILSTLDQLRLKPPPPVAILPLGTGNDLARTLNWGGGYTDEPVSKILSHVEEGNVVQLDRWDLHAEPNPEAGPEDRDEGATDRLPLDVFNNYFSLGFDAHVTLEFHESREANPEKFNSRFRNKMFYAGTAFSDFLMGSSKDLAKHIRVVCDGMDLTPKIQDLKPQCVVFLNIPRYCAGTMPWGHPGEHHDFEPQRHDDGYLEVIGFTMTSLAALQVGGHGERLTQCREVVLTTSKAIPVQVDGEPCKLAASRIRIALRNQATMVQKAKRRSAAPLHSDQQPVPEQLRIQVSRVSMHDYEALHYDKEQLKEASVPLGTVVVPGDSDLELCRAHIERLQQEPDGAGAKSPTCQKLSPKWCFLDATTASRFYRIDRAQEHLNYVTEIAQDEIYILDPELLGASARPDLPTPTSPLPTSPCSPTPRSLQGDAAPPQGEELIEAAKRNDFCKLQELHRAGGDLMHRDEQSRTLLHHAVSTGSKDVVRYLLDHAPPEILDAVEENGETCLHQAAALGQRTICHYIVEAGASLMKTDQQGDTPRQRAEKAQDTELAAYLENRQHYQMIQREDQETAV

The pIC50 is the IC50 on a negative log10 scale, so that one unit is a factor of ten. In the case of `Cc1ccc(C(=O)c2sc(N(c3ccc(F)cc3)C(C)C(N)=O)nc2N)cc1` (racemic) [Example 63, rac-2-(N-[4-amino-5-(4-methylbenzoyl)thiazol-2-yl]-4-fluoro-anilino)propanamide], the negative logarithm of the IC50 (pIC50) is 7.47.

As for `CC(C(N)=O)N(c1ccc(F)cc1)c1nc(N)c(C(=O)c2ccc(F)cc2)s1` (racemic) [Example 64, rac-2-(N-[4-amino-5-(4-fluorobenzoyl)thiazol-2-yl]-4-fluoro-anilino)propanamide], the negative-log IC50 (pIC50) was 7.25. To `CC(C(N)=O)N(c1nc(N)c(C(=O)c2ccccc2)s1)c1ccc(F)cc1F` (racemic) [Example 65, rac-2-(N-(4-amino-5-benzoyl-thiazol-2-yl)-2,4-difluoro-anilino)propanamide] belongs 7.00; to `COc1ccc(N(c2nc(N)c(C(=O)c3ccccc3)s2)C(C)C(N)=O)cc1` (racemic) [Example 66, rac-2-(N-(4-amino-5-benzoyl-thiazol-2-yl)-4-methoxy-anilino)propanamide], 6.44; to `CCC(C(N)=O)N(c1ccccc1)c1nc(N)c(C(=O)c2ccccc2)s1` (racemic) [Example 67, rac-2-[(4-amino-5-benzoyl-1,3-thiazol-2-yl)(phenyl)amino]butanamide], 5.64. To `CCC(C(N)=O)N(c1ccc(F)cc1)c1nc(N)c(C(=O)c2ccccc2)s1` (racemic) [Example 68, rac-2-[(4-amino-5-benzoyl-1,3-thiazol-2-yl)(4-fluorophenyl)amino]butanamide] belongs 6.34; to `CC(Oc1ccc(C(=O)c2sc(N(c3ccc(F)cc3)C(C)C(N)=O)nc2N)cc1)C(N)=O` (racemic) [Example 69, 2-(N-[4-amino-5-[4-(2-amino-1-methyl-2-oxo-ethoxy)benzoyl]thiazol-2-yl]-4-fluoro-anilino)propanamide], 7.19; to `CCC(C(N)=O)N(c1ccc(F)cc1)c1nc(N)c(C(=O)c2ccc(OC)cc2)s1` (racemic) [Example 70, rac-2-{[4-amino-5-(4-methoxybenzoyl)-1,3-thiazol-2-yl](4-fluorophenyl)amino}butanamide], 6.71.

For `Cc1ccc(N(c2nc(N)c(C(=O)c3ccccc3)s2)C(C)C(N)=O)cc1` (racemic) [Example 73, rac-2-(N-(4-amino-5-benzoyl-thiazol-2-yl)-4-methyl-anilino)propanamide], the pIC50 was 6.83.

Consider `CC(C(N)=O)N(c1cccc(F)c1)c1nc(N)c(C(=O)c2ccccc2)s1` (racemic) [Example 74, rac-2-(N-(4-amino-5-benzoyl-thiazol-2-yl)-3-fluoro-anilino)propanamide], for which the pIC50 was 6.72.

For the compound `CC(C(N)=O)N(c1nc(N)c(C(=O)c2ccccc2)s1)c1ccccc1F` (racemic) [Example 75, rac-2-(N-(4-amino-5-benzoyl-thiazol-2-yl)-2-fluoro-anilino)propanamide], the pIC50 is 6.38. Under `Cc1cccc(N(c2nc(N)c(C(=O)c3ccccc3)s2)C(C)C(N)=O)c1` (racemic) [Example 76, rac-2-(N-(4-amino-5-benzoyl-thiazol-2-yl)-3-methyl-anilino)propanamide] stands 6.60; under `Cc1ccccc1N(c1nc(N)c(C(=O)c2ccccc2)s1)C(C)C(N)=O` (racemic) [Example 77, rac-2-(N-(4-amino-5-benzoyl-thiazol-2-yl)-2-methyl-anilino)propanamide], 6.27; under `CC(C(N)=O)N(c1cnn(C)c1)c1nc(N)c(C(=O)c2ccccc2)s1` (racemic) [Example 78, rac-2-[(4-amino-5-benzoyl-thiazol-2-yl)-(1-methylpyrazol-4-yl)amino]propanamide], 5.14. To `CC(C(N)=O)N(c1cccnc1)c1nc(N)c(C(=O)c2ccccc2)s1` (racemic) [Example 79, rac-2-[(4-amino-5-benzoyl-thiazol-2-yl)-(3-pyridyl)amino]propanamide] belongs 5.17; to `CC(C(N)=O)N(c1ccc(F)cc1)c1nc(N)c(C(=O)c2ccc(Br)cc2)s1` (racemic) [Example 80, rac-2-(N-[4-amino-5-(4-bromobenzoyl)thiazol-2-yl]-4-fluoro-anilino)propanamide], 7.97; to `CCOC(=O)COc1ccc(C(=O)c2sc(N(c3ccc(F)cc3)C(C)C(N)=O)nc2N)cc1` (racemic) [Example 81, rac-ethyl 2-[4-[4-amino-2-(4-fluoro-N-[2-amino-1-methyl-2-oxo-ethyl]anilino)thiazole-5-carbonyl]phenoxy]acetate], 8.06.

For `CC(C)NC(=O)COc1ccc(C(=O)c2sc(N(c3ccc(F)cc3)C(C)C(N)=O)nc2N)cc1` (racemic) [Example 82, rac-2-(N-[4-amino-5-[4-[2-(isopropylamino)-2-oxo-ethoxy]benzoyl]thiazol-2-yl]-4-fluoro-anilino)propanamide], the negative-log IC50 (pIC50) was 7.05. For `Cc1cccc(CNC(=O)COc2ccc(C(=O)c3sc(N(c4ccc(F)cc4)C(C)C(N)=O)nc3N)cc2)c1` (racemic) [Example 83, rac-2-(N-[4-amino-5-[4-[2-(m-tolylmethylamino)-2-oxo-ethoxy]benzoyl]thiazol-2-yl]-4-fluoro-anilino)propanamide], the pIC50 is 7.61. `Cc1ccccc1CNC(=O)COc1ccc(C(=O)c2sc(N(c3ccc(F)cc3)C(C)C(N)=O)nc2N)cc1` (racemic) [Example 84, rac-2-(N-[4-amino-5-[4-[2-(o-tolylmethylamino)-2-oxo-ethoxy]benzoyl]thiazol-2-yl]-4-fluoro-anilino)propanamide]: the pIC50 is 7.61. As for `CC(C(N)=O)N(c1ccc(F)cc1)c1nc(N)c(C(=O)c2ccc(OCC(=O)N3CCN(C)CC3)cc2)s1` (racemic) [Example 86, rac-2-(N-[4-amino-5-[4-[2-(4-methylpiperazin-1-yl)-2-oxo-ethoxy]benzoyl]thiazol-2-yl]-4-fluoro-anilino)propanamide], the pIC50 was 6.12. Under `Cc1cccc(NC(=O)COc2ccc(C(=O)c3sc(N(c4ccc(F)cc4)C(C)C(N)=O)nc3N)cc2)c1` (racemic) [Example 87, rac-2-(N-[4-amino-5-[4-[2-(3-methylanilino)-2-oxo-ethoxy]benzoyl]thiazol-2-yl]-4-fluoro-anilino)propanamide] stands 8.07; under `CC(C(N)=O)N(c1ccc(F)cc1)c1nc(N)c(C(=O)c2ccc(OCC(=O)N3CCOCC3)cc2)s1` (racemic) [Example 88, rac-2-(N-[4-amino-5-[4-(2-morpholino-2-oxo-ethoxy)benzoyl]thiazol-2-yl]-4-fluoro-anilino)propanamide], 6.18; under `CC(C(N)=O)N(c1ccc(F)cc1)c1nc(N)c(C(=O)c2ccc(OCC(=O)NCCN3CCCCC3)cc2)s1` (racemic) [Example 89, rac-2-(N-[4-amino-5-[4-[2-oxo-2-[2-(1-piperidyl)ethylamino]ethoxy]benzoyl]thiazol-2-yl]-4-fluoro-anilino)propanamide], 6.88. To `CC(C(N)=O)N(c1ccc(F)cc1)c1nc(N)c(C(=O)c2ccc(OCC(=O)N3CCC(Cc4ccccc4)CC3)cc2)s1` (racemic) [Example 90, rac-2-(N-[4-amino-5-[4-[2-(4-benzyl-1-piperidyl)-2-oxo-ethoxy]benzoyl]thiazol-2-yl]-4-fluoro-anilino)propanamide] belongs 7.20; to `COCCNC(=O)COc1ccc(C(=O)c2sc(N(c3ccc(F)cc3)C(C)C(N)=O)nc2N)cc1` (racemic) [Example 91, rac-2-(N-(4-amino-5-[4-[2-(2-methoxyethylamino)-2-oxo-ethoxy]benzoyl]thiazol-2-yl]-4-fluoro-anilino)propanamide], 6.15. Regarding `CC(C(N)=O)N(c1ccc(F)cc1)c1nc(N)c(C(=O)c2ccc(OCC(=O)Nc3ccc(C#N)cc3)cc2)s1` (racemic) [Example 92, rac-2-(N-[4-amino-5-[4-[2-(4-cyanoanilino)-2-oxo-ethoxy]benzoyl]thiazol-2-yl]-4-fluoro-anilino)propanamide], the pIC50 was 7.78. Consider `C#CCN(C)C(=O)COc1ccc(C(=O)c2sc(N(c3ccc(F)cc3)C(C)C(N)=O)nc2N)cc1` (racemic) [Example 93, rac-2-(N-[4-amino-5-[4-[2-[methyl(prop-2-ynyl)amino]-2-oxo-ethoxy]benzoyl]thiazol-2-yl]-4-fluoro-anilino)propanamide], for which the pIC50 is 6.73.

As for `COc1ccccc1CNC(=O)COc1ccc(C(=O)c2sc(N(c3ccc(F)cc3)C(C)C(N)=O)nc2N)cc1` (racemic) [Example 94, rac-2-(N-[4-amino-5-[4-[2-[(2-methoxyphenyl)methylamino]-2-oxo-ethoxy]benzoyl]thiazol-2-yl]-4-fluoro-anilino)propanamide], the negative logarithm of the IC50 (pIC50) was 7.59.

As for `COc1cccc(CNC(=O)COc2ccc(C(=O)c3sc(N(c4ccc(F)cc4)C(C)C(N)=O)nc3N)cc2)c1` (racemic) [Example 95, rac-2-(N-(4-amino-5-[4-[2-[(3-methoxyphenyl)methylamino]-2-oxo-ethoxy]benzoyl]thiazol-2-yl]-4-fluoro-anilino)propanamide], the negative logarithm of the IC50 (pIC50) is 7.41.
